According to ChEMBL document CHEMBL3627686, “Discovery of the oxazabicyclo[3.3.1]nonane derivatives as potent and orally active GPR119 agonists” (Bioorg Med Chem Lett, 2015):
pEC50: −log10 of the molar value. Values after ≈ are worked out from the molar mass of the structure shown. Active and inactive are the calls of the source. The calls are words filed in the database; no cut-off is given here.

What was measured:
[1] = biological target: T1, Glucose-dependent insulinotropic receptor (Mus musculus) (UniProt Q7TQP3); assay: (§1) Agonist activity at mouse GPR119 expressed in HEK293 cells assessed as cAMP accumulation after 30 mins by fluorescence analysis; type: functional, cell-based
T1 sequence (whole entry): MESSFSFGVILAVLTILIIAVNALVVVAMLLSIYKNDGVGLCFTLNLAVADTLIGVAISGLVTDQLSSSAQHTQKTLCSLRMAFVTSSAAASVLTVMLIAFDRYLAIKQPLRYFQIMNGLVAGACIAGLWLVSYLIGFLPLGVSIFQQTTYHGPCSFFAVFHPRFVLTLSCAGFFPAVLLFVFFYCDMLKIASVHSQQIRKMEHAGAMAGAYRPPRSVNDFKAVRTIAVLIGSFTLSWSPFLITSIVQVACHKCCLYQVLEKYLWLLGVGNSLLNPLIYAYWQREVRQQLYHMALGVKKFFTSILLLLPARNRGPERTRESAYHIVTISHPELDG

[2] = biological target: T2, Glucose-dependent insulinotropic receptor (Homo sapiens) (UniProt Q8TDV5); assay: (§2) Agonist activity at human GPR119 expressed in HEK293 cells assessed as cAMP accumulation after 30 mins by fluorescence analysis; type: functional, cell-based
T2 sequence (whole entry): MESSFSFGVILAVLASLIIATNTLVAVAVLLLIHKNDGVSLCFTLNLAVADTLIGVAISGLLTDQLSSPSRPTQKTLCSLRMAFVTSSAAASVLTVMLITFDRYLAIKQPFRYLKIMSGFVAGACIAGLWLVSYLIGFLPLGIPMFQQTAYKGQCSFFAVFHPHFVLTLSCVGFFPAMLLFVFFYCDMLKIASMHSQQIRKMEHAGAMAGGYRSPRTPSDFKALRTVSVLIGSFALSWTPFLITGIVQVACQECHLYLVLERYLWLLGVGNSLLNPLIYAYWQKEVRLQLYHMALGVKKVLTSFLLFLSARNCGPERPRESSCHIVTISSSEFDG

[3] = biological target: T3, Glucose-dependent insulinotropic receptor (Mus musculus, UniProt Q7TQP3); assay: as §1; type: functional, cell-based
T3 sequence (Q7TQP3 whole entry): T1 sequence (whole entry)

[4] = AUC (0 to 6 hrs) in Sprague-Dawley rat plasma at 10 mg/kg, po; type: ADME, organism-based; set-up: time < 6 hr, dose 10 mg/kg, route oral
[5] = biological target: T4, Glucose-dependent insulinotropic receptor (Homo sapiens, UniProt Q8TDV5); assay: as §2; type: functional, cell-based
T4 sequence (Q8TDV5 whole entry): T2 sequence (whole entry)

Mus musculus [6] = assay: Decrease in blood glucose level in C57B1/6NCrl mouse at 3 mg/kg, po administered 30 mins prior to oral glucose challenge by glucose tolerance test relative to control; type: functional
Plasma [7] = assay: Fraction unbound in C57B1/6NCrl mouse plasma at 3 mg/kg, po after 1 hr; type: ADME, organism-based; conditions: in vivo
[8] = Solubility of compound at pH 7.4; type: physicochemical; conditions: buffer
Mus musculus [9] = assay: Decrease in blood glucose level in C57B1/6NCrl mouse at 3 mg/kg, po administered 30 mins prior to oral glucose challenge by glucose tolerance test; type: functional, organism-based
Plasma [10] = assay: Plasma concentration in C57B1/6NCrl mouse at 0.3 mg/kg, po; type: ADME, organism-based; conditions: in vivo
Plasma [11] = assay: Plasma concentration in C57B1/6NCrl mouse at 0.1 mg/kg, po; type: ADME, organism-based; conditions: in vivo
Plasma [12] = assay: Plasma concentration in C57B1/6NCrl mouse at 3 mg/kg, po; type: ADME, organism-based; conditions: in vivo
Mus musculus [13] = assay: Decrease in blood glucose level in C57B1/6NCrl mouse at 0.1 mg/kg, po administered 30 mins prior to oral glucose challenge by glucose tolerance test relative to control; type: functional
Mus musculus [14] = assay: Decrease in blood glucose level in C57B1/6NCrl mouse drug administered 30 mins prior to oral glucose challenge by glucose tolerance test; type: functional, organism-based
Plasma [15] = assay: Plasma concentration in C57B1/6NCrl mouse at 1 mg/kg, po; type: ADME, organism-based; conditions: in vivo

Row | Structure (SMILES) | %max [1] [%] | %max [2] [%] | pEC50 [3] | pEC50 [5] | other results
1 | Cc1c(Nc2ccc(C#N)cc2Cl)ncnc1OC1C2COCC1CN(S(=O)(=O)C1CC1)C2 (stereo in doubt; 17) [listing 1 of 2 here] | 53 | 56 | – | – | –
2 | CC1(OC(=O)N2CC3COCC(C2)C3Oc2cc(Nc3ccc(C#N)cc3Cl)ncn2)CC1 (configuration not stated) | 105 | 88 | 6.60 | 7.60 | AUC(0-t) at 6 h [4]: 1.19 µM·h; inhibition in vivo at 3 mg/kg (Mus musculus [6]): 78%
3 | Cc1c(Nc2ccc(C#N)cc2Cl)ncnc1OC1C2COCC1CN(C(=O)OC1(C)CC1)C2 (configuration not stated) | 102 | 74 | 7.48 | 8.40 | Cp(f) (Plasma [7]): 3 nM; AUC(0-t) at 6 h [4]: 4.98 µM·h; inhibition in vivo at 3 mg/kg (Mus musculus [6]): 79%; solubility [8]: 6 µM (≈ 2.9 µg/mL)
4 | Cc1c(Nc2ccc(C#N)cc2Cl)ncnc1OC1C2COCC1CN(S(=O)(=O)C1CC1)C2 (stereo in doubt; 17) [listing 2 of 2 here] | – | – | 6.07 | 7.29 | –
5 | Cc1c(Nc2ccc(C#N)cc2Cl)ncnc1OC1C2COCC1CN(S(=O)(=O)C1CC1)C2 (stereo in doubt; 18) [listing 1 of 2 here] | – | – | – | 5.92 | –
6 | Cc1ncccc1Nc1ncnc(OC2C3COCC2CN(C(=O)OC(C)C)C3)c1C (stereo in doubt; 21) [listing 1 of 2 here] | – | 78 | – | – | –
7 | Cc1c(Nc2ccc(C#N)cc2Cl)ncnc1OC1C2COCC1CN(C(=O)OC(C)(C)C)C2 (stereo in doubt; 20) [listing 1 of 2 here] | 69 | 83 | – | – | –
8 | Cc1c(Nc2ccc(C#N)cc2Cl)ncnc1OC1CC2COCC(C1)N2C(=O)OC(C)(C)C (stereo in doubt; 15) [listing 1 of 2 here] | 57 | 38 | – | – | Activity (Mus musculus [9]): inactive
9 | Cc1c(Nc2ccc(C#N)cc2Cl)ncnc1OC1CC2COCC(C1)N2C(=O)OC(C)(C)C (stereo in doubt; 14) [listing 1 of 2 here] | – | – | 6.55 | 6.94 | –
10 | Cc1ncccc1Nc1ncnc(OC2C3COCC2CN(C(=O)OC(C)C)C3)c1C (stereo in doubt; 22) | – | – | – | < 5.00 | –
11 | Cc1c(Nc2ccc(C#N)cc2Cl)ncnc1OC1CC2COCC(C1)N2C(=O)OC(C)(C)C (stereo in doubt; 15) [listing 2 of 2 here] | – | – | 7.00 | 7.77 | –
12 | Cc1c(Nc2ccc(C#N)cc2Cl)ncnc1OC1C2COCC1CN(C(=O)OC(C)(C)C)C2 (stereo in doubt; 20) [listing 2 of 2 here] | – | – | 6.85 | 7.70 | –
13 | COc1c(Nc2ccc(C#N)cc2Cl)ncnc1OC1C2COCC1CN(C(=O)OC1(C)CC1)C2 (configuration not stated) | 99 | 88 | 7.37 | 8.15 | concentration (Plasma [10]): 90 nM; concentration (Plasma [11]): 20 nM; AUC(0-t) at 6 h [4]: 8.23 µM·h; concentration (Plasma [12]): 350 nM; inhibition in vivo at 0.1 mg/kg (Mus musculus [13]): 40%; inhibition (Mus musculus [14]): Dose-dependent effect; inhibition in vivo at 3 mg/kg (Mus musculus [6]): 78%; solubility [8]: 30 µM (≈ 15 µg/mL); concentration (Plasma [15]): 220 nM
14 | Cc1c(Nc2ccc(C#N)cc2Cl)ncnc1OC1CC2COCC(C1)N2S(=O)(=O)C1CC1 (configuration not stated) | 100 | 64 | 5.80 | 6.57 | –
15 | Cc1ncccc1Nc1ncnc(OC2C3COCC2CN(C(=O)OC(C)C)C3)c1C (stereo in doubt; 21) [listing 2 of 2 here] | – | – | – | 7.19 | –
16 | Cc1c(Nc2ccc(C#N)cc2Cl)ncnc1OC1C2COCC1CN(S(=O)(=O)C1CC1)C2 (stereo in doubt; 18) [listing 2 of 2 here] | – | 52 | – | – | –
17 | Cc1c(Nc2ccc(S(C)(=O)=O)cc2Cl)ncnc1OC1CC2COCC(C1)N2C(=O)OC(C)(C)C (configuration not stated) | 78 | 49 | 6.72 | 7.36 | Activity (Mus musculus [9]): Active
18 | COc1c(Nc2ccc(C#N)cc2F)ncnc1OC1C2COCC1CN(C(=O)OC1(C)CC1)C2 (configuration not stated) | 116 | 99 | 7.33 | 8.30 | AUC(0-t) at 6 h [4]: 1.43 µM·h; inhibition in vivo at 3 mg/kg (Mus musculus [6]): 78%
19 | Cc1c(Nc2ccc(C#N)cc2Cl)ncnc1OC1C2COCC1CN(C(=O)OC(C)(C)C)C2 (stereo in doubt; 19) [listing 1 of 2 here] | 110 | 65 | – | – | –
20 | Cc1c(Nc2ccc(C#N)cc2Cl)ncnc1OC1C2COCC1CN(C(=O)OC(C)(C)C)C2 (stereo in doubt; 19) [listing 2 of 2 here] | – | – | 7.55 | 8.15 | –
21 | Cc1c(Nc2ccc(S(C)(=O)=O)cc2F)ncnc1OC1CC2COCC(C1)N2C(=O)OC1(C)CC1 (configuration not stated) | 79 | 87 | 6.29 | 7.15 | Cp(f) (Plasma [7]): 100 nM; AUC(0-t) at 6 h [4]: 2.4 µM·h; inhibition in vivo at 3 mg/kg (Mus musculus [6]): 84%; solubility [8]: 3.4 µM (≈ 1.77 µg/mL)
22 | Cc1c(Oc2ccc(C#N)cc2Cl)ncnc1OC1C2COCC1CN(C(=O)OC1(C)CC1)C2 (configuration not stated) | 143 | 78 | 6.89 | 7.80 | AUC(0-t) at 6 h [4]: 1.49 µM·h; inhibition in vivo at 3 mg/kg (Mus musculus [6]): 75%
23 | Cc1c(Nc2ccc(C#N)cc2Cl)ncnc1OC1CC2COCC(C1)N2C(=O)OC(C)(C)C (stereo in doubt; 14) [listing 2 of 2 here] | 34 | 54 | – | – | –
